Key:
[1] = molecular target: T1, Retinoic acid receptor gamma (Homo sapiens, UniProt P13631); test: Agonist activity at RARgamma (unknown origin) transfected in green monkey CV-1 cells co-transfected with NHR responsive luciferase reporter incubated for 18 hrs by luciferase assay; type: cell-based
T1 sequence (P13631 whole entry): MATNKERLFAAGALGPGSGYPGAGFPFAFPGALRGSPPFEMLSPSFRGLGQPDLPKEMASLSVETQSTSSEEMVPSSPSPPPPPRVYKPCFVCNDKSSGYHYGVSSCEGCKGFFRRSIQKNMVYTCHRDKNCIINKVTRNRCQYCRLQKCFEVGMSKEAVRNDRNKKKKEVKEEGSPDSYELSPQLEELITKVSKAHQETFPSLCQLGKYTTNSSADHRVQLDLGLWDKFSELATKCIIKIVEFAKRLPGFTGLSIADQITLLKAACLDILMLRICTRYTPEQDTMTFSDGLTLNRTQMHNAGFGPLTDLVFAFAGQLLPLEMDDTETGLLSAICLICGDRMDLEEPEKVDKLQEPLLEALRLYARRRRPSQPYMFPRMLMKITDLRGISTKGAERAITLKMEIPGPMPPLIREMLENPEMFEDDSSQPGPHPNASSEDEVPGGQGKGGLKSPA

[2] = molecular target: T2, Mineralocorticoid receptor (Homo sapiens, UniProt P08235); test: Agonist activity at mineralocorticoid receptor (unknown origin) transfected in green monkey CV-1 cells co-transfected with NHR responsive luciferase reporter incubated for 18 hrs by luciferase assay; type: cell-based
T2 sequence (P08235 whole entry): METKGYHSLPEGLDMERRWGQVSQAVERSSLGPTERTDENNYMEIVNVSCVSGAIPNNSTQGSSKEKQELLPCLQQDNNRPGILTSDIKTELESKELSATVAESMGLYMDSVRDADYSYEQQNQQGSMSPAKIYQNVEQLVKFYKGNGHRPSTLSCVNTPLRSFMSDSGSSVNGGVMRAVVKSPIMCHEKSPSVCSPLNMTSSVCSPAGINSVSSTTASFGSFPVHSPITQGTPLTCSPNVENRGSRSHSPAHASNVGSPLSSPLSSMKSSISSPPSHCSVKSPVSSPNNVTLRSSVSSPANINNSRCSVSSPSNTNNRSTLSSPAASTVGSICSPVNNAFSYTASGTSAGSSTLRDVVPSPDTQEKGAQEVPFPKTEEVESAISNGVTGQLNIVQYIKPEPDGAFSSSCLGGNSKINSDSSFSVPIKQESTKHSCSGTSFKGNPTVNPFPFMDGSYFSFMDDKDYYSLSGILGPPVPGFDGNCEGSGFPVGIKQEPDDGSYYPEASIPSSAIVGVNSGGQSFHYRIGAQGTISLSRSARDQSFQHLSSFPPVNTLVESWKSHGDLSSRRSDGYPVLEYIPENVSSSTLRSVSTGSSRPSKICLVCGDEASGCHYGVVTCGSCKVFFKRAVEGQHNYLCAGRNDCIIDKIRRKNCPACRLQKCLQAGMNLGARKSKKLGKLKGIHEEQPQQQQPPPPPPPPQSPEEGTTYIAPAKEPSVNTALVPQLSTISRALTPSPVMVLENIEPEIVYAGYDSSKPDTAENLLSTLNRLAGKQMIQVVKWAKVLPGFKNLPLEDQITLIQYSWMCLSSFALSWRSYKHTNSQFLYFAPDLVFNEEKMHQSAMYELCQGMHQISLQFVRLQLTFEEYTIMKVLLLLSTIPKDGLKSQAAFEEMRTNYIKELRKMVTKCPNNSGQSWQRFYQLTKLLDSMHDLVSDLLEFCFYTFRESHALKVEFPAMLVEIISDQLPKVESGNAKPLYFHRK

[3] = molecular target: T3, G-protein coupled bile acid receptor 1 (Homo sapiens, UniProt Q8TDU6); test: Agonist activity at TGR5 in human NCI-H716 cells assessed as increase in intracellular cAMP level preincubated with compound for 60 mins followed by IBMX addition and measured after 24 hrs by HTR-FRET assay; type: functional, cell-based
T3 sequence (Q8TDU6 whole entry): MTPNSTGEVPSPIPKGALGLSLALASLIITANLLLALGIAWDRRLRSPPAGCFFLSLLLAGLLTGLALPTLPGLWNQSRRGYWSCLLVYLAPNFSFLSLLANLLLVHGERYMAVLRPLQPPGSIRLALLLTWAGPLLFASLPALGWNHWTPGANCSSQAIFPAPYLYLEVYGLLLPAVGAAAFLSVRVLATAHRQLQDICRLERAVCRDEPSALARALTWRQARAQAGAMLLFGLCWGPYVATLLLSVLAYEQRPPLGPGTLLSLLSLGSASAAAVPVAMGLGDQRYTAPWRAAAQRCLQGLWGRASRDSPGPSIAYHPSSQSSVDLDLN

[4] = molecular target: T4, Fatty acid-binding protein, liver (Homo sapiens, UniProt P07148); test: Inhibition of FABP1 (unknown origin)
T4 sequence (P07148 whole entry): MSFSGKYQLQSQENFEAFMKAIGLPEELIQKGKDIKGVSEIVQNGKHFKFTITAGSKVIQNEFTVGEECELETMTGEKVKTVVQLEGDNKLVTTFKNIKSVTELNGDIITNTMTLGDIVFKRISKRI

For `O=C(O)c1ccc(-c2ccc(OCc3c(-c4c(Cl)cccc4Cl)noc3C3CC3)cc2)cc1`, the EC50 [1] was > 10 µM, the EC50 [2] was > 10 µM and the EC50 [3] was > 10 µM. For the same molecule, the IC50 [4] was 8.5 µM.
